PMC5384220 (Nature Communications, 2017)

Tests used:
His-KDM4A1-359-Bio = target: T1, His-KDM4A1-359-Bio (Homo sapiens, UniProt O75164); experiment: Biolayer interferometry binding to KDM4A
T1 construct: KDM4A protein (residues 1-359) was cloned into the pNIC-Bio3 plasmid, which incorporates a C-terminal AviTag; made in house; host or cells: E. coli BL21(DE3)Rosetta co-transfected with pCDF-BirA
T1 sequence (O75164 1-359): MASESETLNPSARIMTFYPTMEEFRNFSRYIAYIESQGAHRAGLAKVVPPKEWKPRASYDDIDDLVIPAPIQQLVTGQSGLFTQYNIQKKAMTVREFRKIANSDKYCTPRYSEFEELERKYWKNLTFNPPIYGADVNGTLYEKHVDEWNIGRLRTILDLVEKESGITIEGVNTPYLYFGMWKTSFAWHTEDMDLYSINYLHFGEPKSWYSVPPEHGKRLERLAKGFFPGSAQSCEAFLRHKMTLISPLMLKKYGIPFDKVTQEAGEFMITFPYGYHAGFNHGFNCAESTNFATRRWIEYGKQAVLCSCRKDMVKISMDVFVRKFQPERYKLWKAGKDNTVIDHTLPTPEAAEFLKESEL
Procedure: The formaldehyde dehydrogenase coupled KDM assay was used to determine the mode of inhibition[34], using 0.5 μM His-KDM4A1–359. Prism 5.0 (GraphPad) was used to fit in mix-mode inhibition, to determine the kinetic parameters. Binding constants for CPs and H3(1–15)K9me3 were measured using biolayer interferometry (OctetRed 384, ForteBio) in buffer (50 mM HEPES (pH 7.5), 150 mM NaCl, 10 μM ammonium iron(II) sulphate). His-KDM4A1–359-Bio (70 nM) was immobilized onto super streptavidin biosensor and subjected to different peptide concentrations in buffer. Data analysis was performed using ForteBio Data Aalysis (v6.4).
KDM4A1-359 was immobilized and analysed for binding to peptides at different concentrations.
The concentration of KDM4A in the assay mixture was 0.5 µM.

[1] = target: T2, full-length KDM4A (residues 1-1,064) (Homo sapiens, UniProt O75164); experiment: MALDI-TOF MS demethylation assay with full-length KDM4A; type: biochemical; conditions: CP2 10 µM; H3K9me3 and H3K36me3 peptides 10 µM; 1 h 37°C
T2 construct: full-length KDM4A (residues 1–1,064) purified from HEK293T cells; made in house; host or cells: HEK293T (transient transfection, anti-FLAG M2 immunoprecipitation)
T2 sequence (O75164 1-1064): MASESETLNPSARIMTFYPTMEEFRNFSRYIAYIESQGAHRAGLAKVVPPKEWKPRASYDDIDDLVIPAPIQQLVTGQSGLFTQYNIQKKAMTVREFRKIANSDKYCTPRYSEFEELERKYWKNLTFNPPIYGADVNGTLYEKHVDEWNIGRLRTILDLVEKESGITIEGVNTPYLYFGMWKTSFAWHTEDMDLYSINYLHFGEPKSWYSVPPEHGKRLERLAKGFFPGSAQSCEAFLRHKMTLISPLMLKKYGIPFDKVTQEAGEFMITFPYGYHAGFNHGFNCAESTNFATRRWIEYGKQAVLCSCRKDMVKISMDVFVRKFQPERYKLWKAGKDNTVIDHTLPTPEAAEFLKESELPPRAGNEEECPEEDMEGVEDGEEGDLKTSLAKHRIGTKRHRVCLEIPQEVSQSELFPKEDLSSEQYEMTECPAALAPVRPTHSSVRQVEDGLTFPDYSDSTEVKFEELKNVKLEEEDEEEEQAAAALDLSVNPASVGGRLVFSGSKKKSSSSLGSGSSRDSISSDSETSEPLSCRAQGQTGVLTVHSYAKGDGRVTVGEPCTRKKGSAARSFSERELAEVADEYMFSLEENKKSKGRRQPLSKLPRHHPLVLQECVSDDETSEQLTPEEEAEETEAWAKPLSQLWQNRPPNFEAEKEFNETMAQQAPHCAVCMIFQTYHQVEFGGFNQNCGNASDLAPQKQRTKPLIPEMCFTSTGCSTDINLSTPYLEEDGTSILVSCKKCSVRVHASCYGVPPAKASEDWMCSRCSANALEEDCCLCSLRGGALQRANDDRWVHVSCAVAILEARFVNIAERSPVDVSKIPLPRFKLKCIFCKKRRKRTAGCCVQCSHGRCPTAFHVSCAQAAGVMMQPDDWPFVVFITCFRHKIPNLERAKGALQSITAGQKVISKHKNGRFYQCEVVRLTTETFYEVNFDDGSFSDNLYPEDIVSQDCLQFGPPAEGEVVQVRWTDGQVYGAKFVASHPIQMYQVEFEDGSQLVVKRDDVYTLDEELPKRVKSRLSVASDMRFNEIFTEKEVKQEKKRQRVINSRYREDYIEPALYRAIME
Excerpt: N-terminally Hexa-His-tagged KDM4A (His-KDM4A1–359) was produced and purified as described. The KDM4A gene encoding for KDM4A protein (residues 1-359) was cloned into the pNIC-Bio3 plasmid, which incorporates a C-terminal AviTag and expressed with biotin supplement in BL21(DE3)Rosetta co-transfected with pCDF-BirA[32]. His-KDM4A with biotin (His-KDM4A-Bio) was purified using nickel affinity chromatography. Complete (>95%) biotinylation of KDM4A was confirmed using electrospray ionization–MS (Waters Micromass LCT Premier). […] The full-length FLAG-tagged KDM4A1–1,064 (ref. [15]) was produced in HEK293T cells. HEK293T cells were grown to 80% confluency in DMEM medium (Sigma) supplemented with Glutamax (Life Technologies), 10% fetal bovine serum (FBS, Sigma). FLAG-tagged KDM4A was transfected using polyethyleneimine. Cells were harvested after 48 h, washed with PBS (Sigma) and lysed (45 min, 4 °C) in 50 mM HEPES (pH 7.5), 150 mM NaCl buffer containing protease inhibitor cocktail (Sigma), 10 μM DNase (Sigma) and 0.1% NP40 (Roche). FLAG-tagged KDM4A was purified by immunoprecipitation using anti-FLAG M2 magnetic beads (Sigma) and washed in 50 mM HEPES (pH 7.5) 150 mM NaCl. The final wash was performed in 50 mM HEPES (pH 7.5) and the resin was used as an enzyme source for the full-length KDM4A.
KDM4A in vitro. […]
(pH 7.5) at 37°C for 1 h. The assay products were analysed by MALDI-TOF MS. […]

Sequence: DYVYNTRSGWRWYTC [CP2]
- KDM4A Binding kdiss (His-KDM4A1-359-Bio): 0.00407 s⁻¹
- KDM4A Binding kon (His-KDM4A1-359-Bio): 137000 M⁻¹ s⁻¹
- Inhibition of demethylation by full-length KDM4A [1]: inhibits
